Assay results reported in patent US10752612B2, “PLK4 inhibitors” (LUDWIG INSTITUTE FOR CANCER RESEARCH LTD, priority 2015, dated 2020).
pIC50: −log10 of the molar value.

Molecular target: T1, human Plk4 kinase domain (aa 2-275) (Homo sapiens, UniProt O00444)
T1 construct: purified 6×His-tagged human Plk4 kinase domain (aa 2-275); 6xHis; made in house; host or cells: E. coli
T1 sequence (O00444 2-275): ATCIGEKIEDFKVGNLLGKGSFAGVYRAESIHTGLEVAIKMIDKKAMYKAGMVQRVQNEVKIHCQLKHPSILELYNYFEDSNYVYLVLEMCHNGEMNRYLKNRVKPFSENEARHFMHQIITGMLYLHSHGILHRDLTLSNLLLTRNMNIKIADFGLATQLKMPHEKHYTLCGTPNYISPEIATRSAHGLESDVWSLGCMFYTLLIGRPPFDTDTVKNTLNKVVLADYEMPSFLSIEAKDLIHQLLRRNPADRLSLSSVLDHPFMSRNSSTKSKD
Assay: Plk4 kinase assay (ADP-Glo)
Assay type: biochemical
Conditions: Table 1
Description: Kinase assays. […] The Plk4 concentration in the final reaction was 2.5-10 nM with a final pH of 8.0. […] Reactions were allowed to proceed for 4-16 hours at 25° C. Detection was performed using ADP-Glo reagent (Promega), following manufacturer's instructions. Luminescence was measured on an Infinite M1000 plate reader (Tecan). Data were fit using Prism (GraphPad) and Kis were calculated from IC50 data using the Cheng and Prusoff equation (37) or the Copeland formalism for tight-binding inhibitors (38).

| pIC50 | SMILES |
| --- | --- |
| > 6.00 | Cc1cc(Nc2nc(Sc3ccc(N)cc3)nc3c2CCC32CCN(CCN(C)C)CC2)n[nH]1 |
| > 6.00 | COc1c(Nc2cc(C)[nH]n2)nc(Sc2ccc(NC(C)=O)cc2)nc1N1CCN(CCN2CCCC2)CC1 |
| > 6.00 | CCN(C)CCN1CCN(c2nc(Sc3ccc(NC(C)=O)cc3)nc(Nc3cc(C)[nH]n3)c2OC)CC1 |
| > 6.00 | COc1c(Nc2cc(C)[nH]n2)nc(Sc2ccc(NC(C)=O)cc2)nc1N1CCN(CCN)CC1 |
| > 6.00 | CCN(CC)CCN1CCN(c2nc(Sc3ccc(NC(C)=O)cc3)nc(Nc3cc(C)[nH]n3)c2OC)CC1 |
| > 6.00 | COc1c(Nc2cc(C)[nH]n2)nc(Sc2ccc(NC(C)=O)cc2)nc1N1CCN(CCN2CCNCC2)CC1 |
| < 6.00 | COC(=O)Cc1cc(Nc2nc(SC)nc(N3CCN(CCN(C)C)CC3)c2OC)n[nH]1 |
| < 6.00 | COc1c(Nc2cc(CC(=O)O)[nH]n2)nc(SC)nc1N1CCN(CCN(C)C)CC1 |
| < 6.00 | CNC(=O)Cc1cc(Nc2nc(SC)nc(N3CCN(CCN(C)C)CC3)c2OC)n[nH]1 |
| 6.00 to 7.00 | COc1c(Nc2cc(C)[nH]n2)nc(Sc2ccc(NC(C)=O)cc2)nc1N1CCN(CCN2CCC(O)CC2)CC1 |
| 6.00 to 7.00 | COc1c(Nc2cc(C)[nH]n2)nc(Sc2ccc(NC(C)=O)cc2)nc1N1CCC(CCN2CCCCC2)CC1 |
| > 6.00 | COc1c(Nc2cc(C)[nH]n2)nc(Sc2ccc(NC(C)=O)cc2)nc1N1CCC(CC(=O)O)CC1 |
| > 6.00 | COc1c(Nc2cc(C)[nH]n2)nc(Sc2ccc(NC(C)=O)cc2)nc1N1CCN(CCN2CCN(C)CC2)CC1 |
| > 6.00 | COC(=O)CC1CCN(c2nc(Sc3ccc(NC(C)=O)cc3)nc(Nc3cc(C)[nH]n3)c2OC)CC1 |
| > 6.00 | COc1c(Nc2cc(C)[nH]n2)nc(Sc2ccc(NC(C)=O)cc2)nc1N1CCN(C(N)=O)CC1 |
| > 6.00 | COc1c(Nc2cc(C)[nH]n2)nc(Sc2ccc(NC(C)=O)cc2)nc1N1CCN(CC(=O)O)CC1 |
| > 6.00 | COc1c(Nc2cc(C)[nH]n2)nc(Sc2ccc(NC(C)=O)cc2)nc1N1CCN(CC(N)=O)CC1 |
| > 6.00 | COc1c(Nc2cc(C)[nH]n2)nc(Sc2ccc(NC(C)=O)cc2)nc1N1CC2CCC(C1)N2CCN(C)C |
| > 6.00 | COc1c(Nc2cc(C)[nH]n2)nc(Sc2ccc(NC(C)=O)cc2)nc1N1CCC(CC(N)=O)CC1 |

| pIC50 | SMILES |
| --- | --- |
| > 6.00 | COc1c(Nc2cc(C)[nH]n2)nc(Sc2ccc(NC(C)=O)cc2)nc1N1CCN(C(=N)NO)CC1 |
| > 6.00 | COc1c(Nc2cc(C)[nH]n2)nc(Sc2ccc(NC(C)=O)cc2)nc1N1CCN(CCN(C)OC)CC1 |
| > 6.00 | COc1c(Nc2cc(C)[nH]n2)nc(Sc2ccc(NC(C)=O)cc2)nc1N1CCN(CCNC(N)=O)CC1 |
| > 6.00 | COc1c(Nc2cc(C)[nH]n2)nc(Sc2ccc(NC(C)=O)cc2)nc1N1CC(C)N(CCN(C)C)C(C)C1 (centres unmarked) |
| > 6.00 | COc1c(Nc2cc(C)[nH]n2)nc(Sc2ccc(NC(C)=O)cc2)nc1N1CCN(C(=N)N)CC1 |
| > 6.00 | COC(=O)CN1CCN(c2nc(Sc3ccc(NC(C)=O)cc3)nc(Nc3cc(C)[nH]n3)c2OC)CC1 |
| > 6.00 | COc1c(Nc2cc(C)[nH]n2)nc(Sc2ccc(NC(C)=O)cc2)nc1N1CCN(CCN2CCCCCC2)CC1 |
| > 6.00 | COc1c(Nc2cc(C)[nH]n2)nc(Sc2ccc(NC(C)=O)cc2)nc1N1CCN(CCN2CCCCCCC2)CC1 |
| > 6.00 | COc1c(Nc2cc(C)[nH]n2)nc(Sc2ccc(NC(C)=O)cc2)nc1N1CCN(CCNC(=N)N)CC1 |
| > 6.00 | COC(=O)c1ccc(Sc2nc(Nc3cc(C)[nH]n3)c(OC)c(N3CCN(CCN(C)C)CC3)n2)cc1 |
| > 6.00 | COc1c(Nc2cc(C)[nH]n2)nc(Sc2ccc(NC(C)=O)cc2)nc1N1CCN(CCN(C)C)CC1 |
| > 6.00 | COc1c(Nc2cc(C)[nH]n2)nc(Sc2ccc(NC(C)=O)cc2)nc1N1CCC(CC(=O)N(C)C)CC1 |
| > 6.00 | COc1c(Nc2cc(C)[nH]n2)nc(Sc2ccc(NC(C)=O)cc2)nc1N1CCC(CC(=O)N2CCCCC2)CC1 |
| > 6.00 | COc1c(Nc2cc(C)[nH]n2)nc(Sc2ccc(NC(C)=O)cc2)nc1N1CC2CCC(C1)N2CCN1CCN(C)CC1 |
| > 6.00 | COc1c(Nc2cc(C)[nH]n2)nc(Sc2ccc(C(C)=O)cc2)nc1N1CCN(CCN(C)C)CC1 |
| > 6.00 | COc1c(Nc2cc(C)[nH]n2)nc(Sc2ccc(C(=O)N(C)C)cc2)nc1N1CCN(CCN(C)C)CC1 |
| > 6.00 | COc1c(Nc2cc(C)[nH]n2)nc(Sc2ccc(S(C)(=O)=O)cc2)nc1N1CCN(CCN(C)C)CC1 |
| > 6.00 | CNC(=O)c1ccc(Sc2nc(Nc3cc(C)[nH]n3)c(OC)c(N3CCN(CCN(C)C)CC3)n2)cc1 |
| > 6.00 | COc1c(Nc2cc(C)[nH]n2)nc(Sc2ccc(NC(C)=O)cc2)nc1N1CCN(CCN(C)Cc2ccccc2)CC1 |
